Patent US6962713B2, “Spot-on formulations for combating parasites” (Merial, priority 1919, dated 2005)
Marks after values point to notes of the source that are not given here.

Test: Plasma kinetics of ivermectin after spot-on application at different doses in combination with fipronil to dogs
Assay type: in vivo, dog
Settings: for Cmax, Mean: spot-on with fipronil 10 mg.kg^−1, dogs, mean of 3; for t½, Mean: harmonic mean
Protocol: This study was undertaken in order to assess the linearity of the percutaneous passage of ivermectin after spot-on application of different doses of ivermectin (100, 250, 500 and 1000 μg.kg^−1) in combination with fipronil (10 mg.kg^−1) to the dog. Furthermore, the possibility of control both heartworms and gastro-intestinal nematodes was evaluated.
Twelve male Beagle dogs (allocated into 4 groups of 3 animals were applied spot-on formulations combining ivermectin (0.1%, 0.25%, 0.5% and 1%) and fipronil (10%) at a dose rate of 0.1 ml.kg^−1 (i.e. 100, 250, 500 and 1000 μg.kg^−1 of ivermectin and 10 mg.kg^−1 of fipronil).
The formulations are as follows: […]
The formulations were applied at one spot onto the skin between the shoulder blades.
Blood samples were collected at intervals up to 56 days post treatment.
The determination of ivermectin was carried out by HPLC after an automated solid/liquid extraction, using fluorescence detection, with limit of quantification of 100 pg.ml^−1. The determination of fipronil and its sulfone metabolite (RM1602) was carried out by HPLC with UV detection, with a limit of quantification of 20 ng.ml^−1 for fipronil and RM1602. Both methods were validated in terms of specificity, extraction recovery, linearity, precision and accuracy.

[1] = spot-on with fipronil, dogs, Group I 100 μg.kg^−1 ivermectin
[2] = spot-on with fipronil, dogs, Group I 100 μg.kg^−1 ivermectin, range over dogs
[3] = spot-on with fipronil, dogs, Group II 250 μg.kg^−1 ivermectin
[4] = spot-on with fipronil, dogs, Group II 250 μg.kg^−1 ivermectin, range over dogs
[5] = spot-on with fipronil, dogs, Group III 500 μg.kg^−1 ivermectin
[6] = spot-on with fipronil, dogs, Group III 500 μg.kg^−1 ivermectin, range over dogs
[7] = spot-on with fipronil, dogs, Group IV 1000 μg.kg^−1 ivermectin
[8] = spot-on with fipronil, dogs, Group IV 1000 μg.kg^−1 ivermectin, range over dogs

With ivermectin the “difference in parameters of absorption (Cmax and AUC) between the two studies” value (Example 7 versus Example 6, 250 μg.kg^−1 ivermectin spot-on, dogs) was over 2 fold, the “plasma concentrations of ivermectin compared with Example 6” value (same formulation (0.25% ivermectin, 10% fipronil), same dose 250 μg.kg^−1, dogs) was “much lower” and the “Cmax, Mean” value (Group I 100 μg.kg^−1 ivermectin) was 0.136 ng/mL. The “Cmax, Mean” value (Group II 250 μg.kg^−1 ivermectin) was 0.508 ng/mL, the “Cmax, Mean” value (Group III 500 μg.kg^−1 ivermectin) was 1.064 ng/mL and the “Cmax, Mean” value (Group IV 1000 μg.kg^−1 ivermectin) was 1.802 ng/mL. The “AUC (0-Clast), Mean” value [1] was 382 pg·days/mL, the “Tlast, Mean” value [1] was 7 days and the “tmax, Mean” value [1] was 7 days. For the same substance, the “AUC (0-Clast), Range” value [2] was “[0-775] pg.d.ml^−1”, the “Cmax, Range” value [2] was “[0-235] pg.ml^−1” and the “Tlast, Range” value [2] was “[5-9] d”. For the same substance, the “tmax, Range” value [2] was “[5-9] d”, the “t½, Mean” value [3] was 9.8 (#) d and the “AUC (0-Clast), Mean” value [3] was 7808 pg·days/mL. For the same substance, the “Tlast, Mean” value [3] was 28 days, the “tmax, Mean” value (spot-on with fipronil, dogs, Group II 250 μg.kg^−1 ivermectin, aberant value of 21 days not taken into account) was 4.5* d and the “AUC (0-Clast), Range” value [4] was “[4949-10019] pg.d.ml^−1”. The “Cmax, Range” value [4] was “[250-723] pg.ml^−1”, the “tmax, Range” value [4] was “[4-5] d” and the “t½, Range” value [4] was “[6.4-35.0] d”. For the same substance, the “t½, Mean” value [5] was 11.4 (#) d, the “AUC (0-Clast), Mean” value [5] was 17200 pg·days/mL and the “Tlast, Mean” value [5] was 37 days. The “tmax, Mean” value [5] was 5.7 days, the “AUC (0-Clast), Range” value [6] was “[9088-23274] pg.d.ml^−1” and the “Cmax, Range” value [6] was “[410-572] pg.ml^−1”. The “tmax, Range” value [6] was “[3-7] d”, the “t½, Range” value [6] was “[9.0-16.5] d” and the “t½, Mean” value [7] was 10.2 (#) d. For the same substance, the “AUC (0-Clast), Mean” value [7] was 29711 pg·days/mL, the “Tlast, Mean” value [7] was 40 days and the “tmax, Mean” value [7] was 3.3 days. The “AUC (0-Clast), Range” value [8] was “[16759-39734] pg.d.ml^−1”, the “Cmax, Range” value [8] was “[1669-1966] pg.ml^−1” and the “tmax, Range” value [8] was “[2-5] d”. The “t½, Range” value [8] was “[7.6-12.2] d” and the “mean AUC(0-Clast)” value (spot-on with fipronil, dogs, dose of 250 μg.kg^−1) was 7808 pg·days/mL.
